From patent US20060063720A1, “Oxaliplatin solution concentrate” (priority 2004, published 2006)

Legend:
[1] = cited from earlier work
[2] = Solubility of oxaliplatin in aqueous carbohydrate solutions (saturated solution supernatant, HPLC; pH of saturated solution); conditions: for Oxaliplatin concentration of the saturated solution: pH not adjusted; for pH of the saturated solution: oxaliplatin-saturated

## O=C1[O][Pt-2]2([NH2+]C3CCCC[C@H]3[NH2+]2)[O]C1=O (stereo partly drawn) [Oxaliplatin, cis-oxalato-(trans-1,2-cyclohexanediamine)-platinum(II)]
[1]; at least at concentrations below 1 mg/ml
  Stability in water: not very stable
[1]; ethanol
  Solubility in ethanol: practically insoluble
[1]; methanol
  Solubility in methanol: scarcely soluble
[1]; water
  Solubility in water: soluble
[2]; 0% Glucose
  Oxaliplatin concentration of the saturated solution: 7.66 mg/mL
  pH of the saturated solution: pH 6.1
[2]; 5% Glucose
  Oxaliplatin concentration of the saturated solution: 8.14 mg/mL
  pH of the saturated solution: pH 5.9
[2]; 10% Glucose
  Oxaliplatin concentration of the saturated solution: 10.74 mg/mL
  pH of the saturated solution: pH 5.8
[2]; 10% Lactose
  Oxaliplatin concentration of the saturated solution: 10.12 mg/mL
  pH of the saturated solution: pH 4.3
[2]; 10% Trehalose
  Oxaliplatin concentration of the saturated solution: 10.32 mg/mL
  pH of the saturated solution: pH 4.6
[2]; 20% Glucose
  Oxaliplatin concentration of the saturated solution: 11.85 mg/mL
  pH of the saturated solution: pH 5.7
[2]; 25% Dextran 10
  Oxaliplatin concentration of the saturated solution: 10.90 mg/mL
  pH of the saturated solution: pH 4.8
[2]; 25% Dextran 40
  Oxaliplatin concentration of the saturated solution: 10.85 mg/mL
  pH of the saturated solution: pH 4.2
[2]; 25% Dextran 70
  Oxaliplatin concentration of the saturated solution: 10.90 mg/mL
  pH of the saturated solution: pH 4.1
[2]; 25% Galactose
  Oxaliplatin concentration of the saturated solution: 11.53 mg/mL
  pH of the saturated solution: pH 6.3
[2]; 30% Glucose
  Oxaliplatin concentration of the saturated solution: 12.66 mg/mL
  pH of the saturated solution: pH 5.6
[2]; 40% Glucose
  Oxaliplatin concentration of the saturated solution: 13.54 mg/mL
  pH of the saturated solution: pH 5.6
[2]; 50% Fructose
  Oxaliplatin concentration of the saturated solution: 12.56 mg/mL
  pH of the saturated solution: pH 4.7
[2]; 50% Maltose
  Oxaliplatin concentration of the saturated solution: 17.83 mg/mL
  pH of the saturated solution: pH 3.7
[2]; aqueous solution, 25 °C, water
  solubility: 7000 to 8000 µg/mL
[2]; aqueous solutions with solubilizers, aqueous with cosolvent or surfactant or cyclodextrin
  solubility: > 7000 µg/mL
[2]; glucose, maltose, fructose, galactose, dextran 10, 40, 70, polyethylene glycol 200, 300, 400 and 600 as adjuvants
  Oxaliplatin concentration obtained with adjuvants: more than 7 mg/ml solvent
[2]; water
  solubility: ~7500 µg/mL
[2]; with additional dissolved tonic, pH-adjusting, buffering or preserving adjuvants
  Maximum concentration of oxaliplatin in water: 7 mg/mL
